Test results as given in paper PMC12220852, “An adamantane‐based ligand as a novel chemical tool for thermosensory TRPM8 channel therapeutic modulation” (The Febs Journal, 2025).

Assays:
[1] = test system: AITC‐induced excitability in murine nociceptors; test: Multielectrode array (MEA): AITC-induced firing in nociceptors; type: cell-based; settings: 5 μM compound, 100 μM AITC, P2/P1
Description: (§1) Additionally, we investigated the effect of compound 23 on capsaicin and AITC‐induced excitability in murine nociceptors. Employing an IC50 value of 1 μM for TRPV1 and 5 μM for TRPA1 of firing inhibition by compound 23 (Fig. 4), we interrogated its ability to modulate neuronal excitability. As for TRPM8, our experimental design involved a protocol of dual agonist pulses interspersed with a washing pulse to minimize agonist‐induced channel desensitization. Compound 23 was administered 1 min prior to and during the second agonist pulse.
(§2) Primary cultures of neonatal dorsal root ganglia were used for multielectrode array (MEA) and patch‐clamp experiments following established methodologies previously described. Neonatal dorsal root ganglia (DRGs) were obtained from Wistar rats (3–5 days old) and were isolated and digested with 0.25% (w/v) collagenase (type IA) in DMEM GlutaMax with 1% (v/v) penicillin/streptomycin (P/S) solution for 1 h at 37 °C in a 5% CO2 Thermo Scientific incubator. Following digestion, DRGs were mechanically dissociated and passed through a 100 μm cell strainer to obtain single‐cell suspensions. Suspensions were washed with DMEM GlutaMax with 10% (v/v) fetal bovine serum (FBS) and 1% (v/v) penicillin/streptomycin (P/S). Cells were then seeded in microelectrode array chambers coated with poly‐L‐lysine (8.3 μg·mL^−1) and laminin (5 μg·mL^−1). […]

[2] = test system: capsaicin‐induced excitability in murine nociceptors; test: Multielectrode array (MEA): capsaicin-induced firing in nociceptors; type: cell-based; settings: 1 μM compound, 0.5 μM capsaicin, P2/P1
Description: as §1, §2

In the case of `O=C(COC(=O)c1ccccc1-c1ccccc1)NC12CC3CC(CC(C3)C1)C2` [Compound 23, 2‐((3S,5S,7S)‐adamantan‐1‐ylamino)‐2‐oxoethyl [1,1′‐biphenyl]‐2‐carboxylate], the “attenuation of AITC‐induced firing” value [1] is reported as 40% and the “attenuation of capsaicin‐induced firing” value [2] is reported as 30%.
